ChEMBL document CHEMBL4342471, “Discovery of Thieno[2,3-d]pyrimidine-Based Hydroxamic Acid Derivatives as Bromodomain-Containing Protein 4/Histone Deacetylase Dual Inhibitors Induce Autophagic Cell Death in Colorectal Carcinoma Cells” (J Med Chem, 2020)

Key:
HCT-116 = test: Antiproliferative activity against human HCT116 cells assessed as reduction in cell viability measured after 24 to 48 hrs by MTT assay; assay type: functional, cell-based
[1] = target: Bromodomain-containing protein 4 (Homo sapiens, UniProt O60885); test: Inhibition of GST-tagged BRD4 bromodomain (unknown origin) using biotinylated histone H4KAc peptide (1 to 21 residues) as substrate by HTRF assay
SW-620 = test: Antiproliferative activity against human SW620 cells assessed as reduction in cell viability measured after 24 to 48 hrs by MTT assay; assay type: functional, cell-based
Histone deacetylase 7 = target: T1, Histone deacetylase 7 (Homo sapiens, UniProt Q8WUI4); test: Inhibition of HDAC7 (unknown origin) using biotinylated histone H3 KAc peptide (1 to 21 residues) as substrate by HTRF assay
T1 sequence (Q8WUI4 whole entry): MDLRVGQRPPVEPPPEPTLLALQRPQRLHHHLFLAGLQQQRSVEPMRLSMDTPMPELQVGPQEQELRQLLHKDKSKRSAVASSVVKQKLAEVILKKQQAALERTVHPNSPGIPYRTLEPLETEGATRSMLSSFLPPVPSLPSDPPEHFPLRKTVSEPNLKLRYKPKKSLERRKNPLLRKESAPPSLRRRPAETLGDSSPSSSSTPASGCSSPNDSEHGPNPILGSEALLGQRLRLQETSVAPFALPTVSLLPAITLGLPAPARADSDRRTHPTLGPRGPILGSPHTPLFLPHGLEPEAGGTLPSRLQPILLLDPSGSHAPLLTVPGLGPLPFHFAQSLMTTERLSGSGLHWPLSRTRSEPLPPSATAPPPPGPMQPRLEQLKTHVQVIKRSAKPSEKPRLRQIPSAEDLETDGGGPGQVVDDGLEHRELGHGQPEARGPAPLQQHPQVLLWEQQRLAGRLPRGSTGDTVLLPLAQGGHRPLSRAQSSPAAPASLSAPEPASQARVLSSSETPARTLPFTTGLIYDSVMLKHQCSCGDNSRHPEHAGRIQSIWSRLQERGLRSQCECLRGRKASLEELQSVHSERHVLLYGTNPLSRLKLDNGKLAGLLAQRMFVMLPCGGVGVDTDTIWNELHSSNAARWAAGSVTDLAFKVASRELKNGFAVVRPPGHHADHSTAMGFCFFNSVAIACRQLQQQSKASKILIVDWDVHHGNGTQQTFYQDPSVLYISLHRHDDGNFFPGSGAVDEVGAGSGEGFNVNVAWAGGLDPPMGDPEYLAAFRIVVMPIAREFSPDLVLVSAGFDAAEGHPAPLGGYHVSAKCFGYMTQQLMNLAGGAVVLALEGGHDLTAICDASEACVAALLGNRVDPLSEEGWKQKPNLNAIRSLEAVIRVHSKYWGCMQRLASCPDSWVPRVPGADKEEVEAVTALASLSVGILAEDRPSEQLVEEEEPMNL

[2] = target: T2, Protein deacetylase HDAC6 (Homo sapiens, UniProt Q9UBN7); test: Inhibition of HDAC6 (unknown origin) using biotinylated histone H3 KAc peptide (1 to 21 residues) as substrate by HTRF assay
T2 sequence (Q9UBN7 whole entry): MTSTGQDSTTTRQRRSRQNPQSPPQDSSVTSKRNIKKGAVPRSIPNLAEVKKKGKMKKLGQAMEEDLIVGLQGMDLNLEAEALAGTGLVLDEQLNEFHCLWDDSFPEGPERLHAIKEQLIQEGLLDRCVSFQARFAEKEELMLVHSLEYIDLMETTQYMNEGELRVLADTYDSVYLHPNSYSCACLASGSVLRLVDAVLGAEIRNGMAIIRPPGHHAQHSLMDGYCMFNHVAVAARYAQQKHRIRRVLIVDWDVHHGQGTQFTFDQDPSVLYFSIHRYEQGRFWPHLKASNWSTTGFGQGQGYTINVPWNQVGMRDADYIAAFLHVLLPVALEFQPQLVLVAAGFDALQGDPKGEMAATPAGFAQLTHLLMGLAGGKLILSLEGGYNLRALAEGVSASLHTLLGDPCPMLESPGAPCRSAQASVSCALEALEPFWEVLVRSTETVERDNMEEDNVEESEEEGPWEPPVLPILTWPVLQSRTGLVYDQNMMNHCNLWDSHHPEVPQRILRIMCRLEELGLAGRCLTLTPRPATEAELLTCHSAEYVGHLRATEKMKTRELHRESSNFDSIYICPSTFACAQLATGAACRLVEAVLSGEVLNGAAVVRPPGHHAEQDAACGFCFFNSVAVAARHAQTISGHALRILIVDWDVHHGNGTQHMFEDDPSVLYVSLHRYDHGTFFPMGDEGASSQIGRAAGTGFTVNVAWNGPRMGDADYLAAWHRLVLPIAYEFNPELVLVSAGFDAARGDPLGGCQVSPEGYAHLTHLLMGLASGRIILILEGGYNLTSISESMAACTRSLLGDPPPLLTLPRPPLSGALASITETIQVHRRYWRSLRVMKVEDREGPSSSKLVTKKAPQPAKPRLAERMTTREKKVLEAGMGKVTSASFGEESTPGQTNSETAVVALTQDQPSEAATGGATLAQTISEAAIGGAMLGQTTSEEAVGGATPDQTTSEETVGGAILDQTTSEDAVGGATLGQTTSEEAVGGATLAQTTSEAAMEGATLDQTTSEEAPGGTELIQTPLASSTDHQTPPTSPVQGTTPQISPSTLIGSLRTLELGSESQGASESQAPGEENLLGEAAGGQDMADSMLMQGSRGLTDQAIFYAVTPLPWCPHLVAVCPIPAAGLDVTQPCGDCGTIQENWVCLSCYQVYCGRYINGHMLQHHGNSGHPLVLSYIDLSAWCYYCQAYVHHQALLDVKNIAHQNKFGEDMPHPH

DLD-1 = test: Antiproliferative activity against human DLD1 cells assessed as reduction in cell viability measured after 24 to 48 hrs by MTT assay; assay type: functional, cell-based
Histone deacetylase 2 = Histone deacetylase 2 (Homo sapiens, UniProt Q92769)
Histone deacetylase 2, sequence (Q92769 whole entry): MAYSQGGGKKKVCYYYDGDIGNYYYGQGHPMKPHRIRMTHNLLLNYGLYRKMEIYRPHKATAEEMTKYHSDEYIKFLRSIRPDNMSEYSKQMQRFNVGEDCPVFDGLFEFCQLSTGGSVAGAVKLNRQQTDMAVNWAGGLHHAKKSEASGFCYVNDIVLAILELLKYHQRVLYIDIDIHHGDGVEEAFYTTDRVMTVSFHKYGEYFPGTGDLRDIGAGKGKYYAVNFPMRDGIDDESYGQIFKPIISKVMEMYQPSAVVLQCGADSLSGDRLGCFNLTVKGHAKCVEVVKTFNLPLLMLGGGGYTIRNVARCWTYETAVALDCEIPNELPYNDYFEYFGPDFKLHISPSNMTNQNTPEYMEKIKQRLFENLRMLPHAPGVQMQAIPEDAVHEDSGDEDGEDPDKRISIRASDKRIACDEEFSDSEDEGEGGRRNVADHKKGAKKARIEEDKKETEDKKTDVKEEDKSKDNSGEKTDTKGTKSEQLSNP

SMILES | IC50 (HCT-116) | IC50 [1] | IC50 (SW-620) | IC50 (Histone deacetylase 7) | IC50 [2] | IC50 (DLD-1) | IC50 (Histone deacetylase 2)
O=c1[nH]c(-c2ccccc2)nc2sc3c(c12)CCN(Cc1ccccc1)C3 | > 10 µM | > 10 µM |  |  |  |  | 
O=c1[nH]c(-c2ccc(O)cc2)nc2sc3c(c12)CCCC3 | 9.73 µM | 5.77 µM |  |  |  |  | 
Cc1cc(C)cc(-c2nc3sc4c(c3c(=O)[nH]2)CCCC4)c1 | > 10 µM | > 10 µM |  |  |  |  | 
Cc1cc(-c2nc3sc4c(c3c(=O)[nH]2)CCN(Cc2ccccc2)C4)cc(C)c1O | > 10 µM | > 10 µM |  |  |  |  | 
Cc1noc(C)c1-c1nc2sc3c(c2c(=O)[nH]1)CCN(CC(=O)Nc1ccccc1N)C3 | 28.3 µM | > 10 µM | 15.2 µM | > 10 µM | 0.391 µM | 15.2 µM | 0.352 µM
CCN1CCc2c(sc3nc(-c4cc(C)cc(C)c4)[nH]c(=O)c23)C1 | > 10 µM | > 10 µM |  |  |  |  | 
CN1CCc2c(sc3nc(-c4ccc(O)cc4)[nH]c(=O)c23)C1 | 8.68 µM | 6.31 µM |  |  |  |  | 
COC(=O)CCCN1CCc2c(sc3nc(-c4c(C)noc4C)[nH]c(=O)c23)C1 | 12.7 µM | 5.93 µM |  |  |  |  | 
Cc1noc(C)c1-c1nc2sc3c(c2c(=O)[nH]1)CCN(CCCC(=O)NO)C3 | 18 µM | > 10 µM | 9.86 µM | > 10 µM | 0.464 µM | 19.6 µM | 0.282 µM
Cc1cc(-c2nc3sc4c(c3c(=O)[nH]2)CCN(C)C4)cc(C)c1OCCCCCC(=O)Nc1ccccc1N | 6.93 µM | 2.19 µM | 9.87 µM | > 10 µM | > 10 µM | > 10 µM | 0.17 µM
Cc1noc(C)c1-c1nc2sc3c(c2c(=O)[nH]1)CCN(CCCCCC(=O)Nc1ccccc1N)C3 | 15.2 µM | > 10 µM | 11.1 µM | > 10 µM | 0.196 µM | 14.8 µM | 0.112 µM
Cc1cc(-c2nc3sc4c(c3c(=O)[nH]2)CCN(C)C4)cc(C)c1OCCCC(=O)NO | 2.08 µM | 1.17 µM | 3.83 µM | > 10 µM | 0.25 µM | 9.72 µM | 0.16 µM
CCN1CCc2c(sc3nc(-c4ccccc4)[nH]c(=O)c23)C1 | > 10 µM | > 10 µM |  |  |  |  | 
COC(=O)CCCCCN1CCc2c(sc3nc(-c4c(C)noc4C)[nH]c(=O)c23)C1 | 17 µM | 3.62 µM |  |  |  |  | 
Cc1cc(C)cc(-c2nc3sc4c(c3c(=O)[nH]2)CCN(Cc2ccccc2)C4)c1 | > 10 µM | > 10 µM |  |  |  |  | 
Cc1cc(C)cc(-c2nc3sc4c(c3c(=O)[nH]2)CCC4)c1 | > 10 µM | > 10 µM |  |  |  |  | 
CN1CCc2c(sc3nc(-c4ccccc4)[nH]c(=O)c23)C1 | > 10 µM | > 10 µM |  |  |  |  | 
Cc1cc(C)cc(-c2nc3sc4c(c3c(=O)[nH]2)CCN(C)C4)c1 | > 10 µM | > 10 µM |  |  |  |  | 

SMILES | IC50 (HCT-116) | IC50 [1] | IC50 (SW-620) | IC50 (Histone deacetylase 7) | IC50 [2] | IC50 (DLD-1) | IC50 (Histone deacetylase 2)
Cc1cc(-c2nc3sc4c(c3c(=O)[nH]2)CCCC4)cc(C)c1O | 5.41 µM | 1.81 µM |  |  |  |  | 
Cc1noc(C)c1-c1nc2sc3c(c2c(=O)[nH]1)CCN(C)C3 | 9.77 µM | 2.41 µM |  |  |  |  | 
Cc1cc(-c2nc3sc4c(c3c(=O)[nH]2)CCN(CCCCCC(=O)NO)C4)cc(C)c1O | > 10 µM | > 10 µM | 15.8 µM | > 10 µM | 0.129 µM | > 10 µM | 0.136 µM
Cc1cc(-c2nc3sc4c(c3c(=O)[nH]2)CCC4)cc(C)c1O | 4.85 µM | 2.64 µM |  |  |  |  | 
COC(=O)CN1CCc2c(sc3nc(-c4c(C)noc4C)[nH]c(=O)c23)C1 | 16.2 µM | 6.68 µM |  |  |  |  | 
O=c1[nH]c(-c2ccc(O)cc2)nc2sc3c(c12)CCN(Cc1ccccc1)C3 | > 10 µM | > 10 µM |  |  |  |  | 
Cc1cc(-c2nc3sc4c(c3c(=O)[nH]2)CCN(C)C4)cc(C)c1OCCOCc1ccc(/C=C/C(=O)NO)cc1 | 0.69 µM | 0.98 µM | 3.85 µM | > 10 µM | 0.159 µM | 3.04 µM | 0.085 µM
Cc1cc(-c2nc3sc4c(c3c(=O)[nH]2)CCN(C)C4)cc(C)c1OCc1ccc(C(=O)Nc2ccccc2N)cc1 | 4.32 µM | 2.55 µM | 5.49 µM | > 10 µM | > 10 µM | > 10 µM | 0.14 µM
Cc1noc(C)c1-c1nc2sc3c(c2c(=O)[nH]1)CCN(CC(=O)NO)C3 | 22.8 µM | > 10 µM | 19.6 µM | > 10 µM | 0.455 µM | 22.6 µM | 0.489 µM
Cc1noc(C)c1-c1nc2sc3c(c2c(=O)[nH]1)CCN(CCCCCC(=O)NO)C3 | 15.3 µM | > 10 µM | 8.47 µM | > 10 µM | 0.156 µM | 16.8 µM | 0.135 µM
Oc1nc(-c2ccccc2)nc2sc3c(c12)CCCC3 | > 10 µM | > 10 µM |  |  |  |  | 
O=c1[nH]c(-c2ccc(O)cc2)nc2sc3c(c12)CCC3 | > 10 µM | 9.28 µM |  |  |  |  | 
Cc1cc(-c2nc3sc4c(c3c(=O)[nH]2)CCN(C)C4)cc(C)c1OCc1cccc(C(=O)NO)c1 | 5.49 µM | 1.93 µM | 7.83 µM | > 10 µM | 0.78 µM | 9.16 µM | 0.251 µM
CCN1CCc2c(sc3nc(-c4cc(C)c(O)c(C)c4)[nH]c(=O)c23)C1 | 8.91 µM | 5.6 µM |  |  |  |  | 
Cc1cc(-c2nc3sc4c(c3c(=O)[nH]2)CCN(C)C4)cc(C)c1OCc1ccc(/C=C/C(=O)NO)cc1 | 0.92 µM | 1.19 µM | 2.34 µM | > 10 µM | 0.202 µM | 3.67 µM | 0.097 µM
Cc1cc(-c2nc3sc4c(c3c(=O)[nH]2)CCN(C)C4)cc(C)c1OCc1ccc(C(=O)NO)cc1 | 1.07 µM | 1.77 µM | 3.87 µM | > 10 µM | 0.188 µM | 6.24 µM | 0.105 µM
O=c1[nH]c(-c2ccccc2)nc2sc3c(c12)CCC3 | > 10 µM | > 10 µM |  |  |  |  | 
CCN1CCc2c(sc3nc(-c4ccc(O)cc4)[nH]c(=O)c23)C1 | > 10 µM | > 10 µM |  |  |  |  | 
